The source of these data is patent publication US8431597B2, “Benzimidazole derivatives” (Pfizer Inc., priority 2007, dated 2013).

Counter-ions that a name gives are not always drawn.

This assay deals with T1, Smoothened (SMO) (Mus musculus, UniProt P56726).
T1 construct: C3H10T1/2 cells (ATCC #CCL-226) were split and seeded; endogenous in cells; host or cells: C3H10T1/2 (ATCC #CCL-226)
T1 sequence (P56726 33-793): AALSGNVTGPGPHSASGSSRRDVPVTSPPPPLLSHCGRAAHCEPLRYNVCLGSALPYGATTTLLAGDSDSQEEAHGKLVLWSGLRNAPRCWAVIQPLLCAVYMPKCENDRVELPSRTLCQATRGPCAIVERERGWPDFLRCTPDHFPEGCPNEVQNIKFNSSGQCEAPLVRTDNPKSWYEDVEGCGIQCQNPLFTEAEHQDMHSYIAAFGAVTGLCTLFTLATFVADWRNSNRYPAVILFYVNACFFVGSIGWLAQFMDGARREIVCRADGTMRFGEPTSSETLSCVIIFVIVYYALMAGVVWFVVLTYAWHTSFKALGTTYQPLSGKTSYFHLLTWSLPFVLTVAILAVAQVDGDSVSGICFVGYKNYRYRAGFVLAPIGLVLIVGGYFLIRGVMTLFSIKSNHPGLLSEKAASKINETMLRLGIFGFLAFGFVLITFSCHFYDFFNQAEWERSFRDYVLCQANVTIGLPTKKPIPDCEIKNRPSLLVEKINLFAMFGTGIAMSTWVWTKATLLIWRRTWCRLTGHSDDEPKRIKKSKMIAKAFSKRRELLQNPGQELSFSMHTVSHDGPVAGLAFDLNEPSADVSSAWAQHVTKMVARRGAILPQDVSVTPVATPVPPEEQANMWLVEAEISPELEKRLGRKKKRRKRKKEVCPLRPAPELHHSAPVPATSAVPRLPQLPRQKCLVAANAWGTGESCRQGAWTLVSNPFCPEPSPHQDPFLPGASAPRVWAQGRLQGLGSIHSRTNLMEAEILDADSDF
In words: Smoothened (SMO)/Sonic Hedgehog (SHh) Transient Transcriptional Activation Assay (Gli-luciferase reporter in C3H10T1/2 cells). The assay is classed as cell-based, murine. The note with it: C3H 10T1/2, 2 μM compound; transfected C3H10T1/2 cells, recombinant human SHh 250 ng/mL, 20 hours, luciferase readout; read-out: SMO CELL % INHIBITION @ 2 μM. The essentials:
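C3H10T1/2 cells transiently transfected with a murine Gli-responsive firefly luciferase reporter plus pEGFP were serum-starved 20 h in 0.5% calf serum. Compound (2 μM to 2 nM final) was added with recombinant human SHh at 250 ng/mL final for 20 h at 37 °C. Read-out was Dual-Glo luminescence.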
In general, inhibition refers to the relative decrease from the control value, in per cent. Consider `CN1CC[C@@H](NC(=O)c2ccc3c(c2)CCCO3)C[C@@H]1c1nc2ccccc2[nH]1` [Example 33, N-[(2R,4R)-2-(1H-benzimidazol-2-yl)-1-methylpiperidin-4-yl]chromane-6-carboxamide hydrochloride], for which the inhibition at 2 µM is 114%.
Then `CN1CC[C@@H](NC(=O)Nc2ccncc2)C[C@@H]1c1nc2ccccc2[nH]1` [Example 16, 1-[(2R,4R)-2-(1H-benzimidazol-2-yl)-1-methylpiperidin-4-yl)-3-pyridin-4-ylurea hydrochloride], with 111%; and `COc1ccc(NC(=O)N[C@@H]2CCN(C)[C@@H](c3nc4ccccc4[nH]3)C2)cn1` [Example 83, 1-[(2R,4R)-2-(1H-benzimidazol-2-yl)-1-methylpiperidin-4-yl]-3-(6-methoxypyridin-3-yl)urea hydrochloride], with 96.1%.
Then `CN1CC[C@@H](NC(=O)c2ccc3c(c2)OCCO3)C[C@@H]1c1nc2ccc(C(F)(F)F)cc2[nH]1` [Example 79, N-{(2R,4R)-1-methyl-2-[6-(trifluoromethyl)-1H-benzimidazol-2-yl]piperidin-4-yl}-2,3-dihydro-1,4-benzodioxine-6-carboxamide hydrochloride], with 99.2%; and `CN1CC[C@@H](NC(=O)Nc2ccc(C#N)cn2)C[C@@H]1c1nc2ccccc2[nH]1` [Example 43, 1-[(2R,4R)-2-(1H-benzimidazol-2-yl)-1-methylpiperidin-4-yl]-3-(5-cyanopyridin-2-yl)urea hydrochloride], with 106%; and `Cc1ccc2[nH]c([C@H]3C[C@H](NC(=O)Nc4ccc(C)nc4)CCN3C3CCC3)nc2c1` [Example 151, 1-[(2R,4R)-1-cyclobutyl-2-(5-methy-1H-benzimidazol-2-yl)piperidin-4-yl]-3-(6-methylpyridin-3-yl)urea triflouroacetate], with 107%.
As for `CN1CC[C@@H](NC(=O)c2cnc3c(c2)OCCO3)C[C@@H]1c1nc2ccccc2[nH]1` [Example 97, N-[(2R,4R)-2-(1H-benzimidazol-2-yl)-1-methylpiperidin-4-yl]-2,3-dihydro[1,4]dioxino[2,3-b]pyridine-7-carboxamide hydrochloride], the inhibition at 2 µM stood at 75.4%.
With `CN1CC[C@@H](NC(=O)c2ccc3c(c2)OCCO3)C[C@@H]1c1nc2ccc(C#N)cc2[nH]1` [Example 63, N-[(2R,4R)-2-(6-cyano-1H-benzimidazol-2-yl)-1-methylpiperidin-4-yl]-2,3-dihydro-1,4-benzodioxine-6-carboxamide hydrochloride], the inhibition at 2 µM stood at 104%.
Then `Cc1ccc2nc([C@@H]3C[C@@H](NC(=O)Nc4ccc(Cl)c(C(F)(F)F)c4)CN3C(C)C)[nH]c2c1` [Example 23, 1-[4-chloro-3-(trifluoromethyl)phenyl]-3-[(3R,5S)-1-isopropyl-5-(6-methyl-1H-benzimidazol-2-yl)pyrrolidin-3-yl]urea], with 100%; and `CN1CC[C@@H](NC(=O)c2ccc3c(c2)OCCO3)C[C@@H]1c1nc2cc(F)c(F)cc2[nH]1` [Example 57, N-[(2R,4R)-2-(5,6-difluoro-1H-benzimidazol-2-yl)-1-methylpiperidin-4-yl]-2,3-dihydro-1,4-benzodioxine-6-carboxamide hydrochloride], with 104%; and `CC(C)N1C[C@@H](NC(=O)Nc2ccc(Cl)c(C(F)(F)F)c2)C[C@H]1c1nc2ccccc2[nH]1` [Example 93, 1-[(3S,5S)-5-(1H-benzimidazol-2-yl)-1-isopropyl-pyrrolidin-3-yl]-3-[4-chloro-3-(trifluoromethyl)phenyl]urea], with 85.2%.
In the case of `CN1CC[C@@H](NC(=O)Cc2ccccc2F)C[C@@H]1c1nc2ccccc2[nH]1` [Example 120, N-[(2R,4R)-2-(1H-benzimidazol-2-yl)-1-methylpiperidin-4-yl]-2-(2-fluorophenyl)acetamide trifluoroacetate] it was 63.7%.
Take `CN1CC[C@@H](NC(=O)Nc2ccc(C(F)(F)F)nc2)C[C@@H]1c1nc2ccc(Cl)cc2[nH]1` [Example 73, 1-[(2R,4R)-2-(6-chloro-1H-benzimidazol-2-yl)-1-methylpiperidin-4-yl]-3-[6-(trifluoromethyl)pyridin-3-yl]urea hydrochloride]: the inhibition at 2 µM was 101%.
On to `CC(C)N1C[C@H](NC(=O)Nc2ccc(Cl)c(C(F)(F)F)c2)C[C@H]1c1nc2ccccc2[nH]1` [Example 84, 1-[(3R,5S)-5-(1H-benzimidazol-2-yl)-1-isopropyl-pyrrolidin-3-yl]-3-[4-chloro-3-(trifluoromethyl)phenyl]urea], for which the inhibition at 2 µM came out at 95.4%.
For `CN1CC[C@@H](NC(=O)Nc2cc(F)cc3c2OCOC3)C[C@@H]1c1nc2ccccc2[nH]1` [Example 41, 1-[(2R,4R)-2-(1H-benzimidazol-2-yl)-1-methylpiperidin-4-yl]-3-(6-fluoro-4H-1,3-benzodioxin-8-yl)urea hydrochloride], the inhibition at 2 µM was 106%.
In the case of `CSc1ccccc1C(=O)N[C@@H]1CCN(C)[C@@H](c2nc3ccccc3[nH]2)C1` [Example 107, N-[(2R,4R)-2-(1H-benzimidazol-2-yl)-1-methylpiperidin-4-yl]-2-(methylthio)benzamide trifluoroacetate], the inhibition at 2 µM was 88.3%.
In the case of `CN1CC[C@@H](NC(=O)Nc2ccc(-c3ccccc3)s2)C[C@@H]1c1nc2ccccc2[nH]1` [Example 90, 1-[(2R,4R)-2-(1H-benzimidazol-2-yl)-1-methylpiperidin-4-yl]-3-(5-phenyl-2-thienyl)urea hydrochloride] it was 87.9%; in that of `CN1CC[C@@H](NC(=O)Nc2ccc(C#N)nc2)C[C@@H]1c1nc2ccccc2[nH]1` [Example 54, 1-[(2R,4R)-2-(1H-benzimidazol-2-yl)-1-methylpiperidin-4-yl]-3-(6-cyanopyridin-3-yl)urea hydrochloride], 105%; in that of `Cc1ccc(NC(=O)N[C@@H]2CCN(C)[C@@H](c3nc4ccccc4[nH]3)C2)c(C)n1` [Example 48, 1-[(2R,4R)-2-(1H-benzimidazol-2-yl)-1-methylpiperidin-4-yl]-3-(2,6-dimethylpyridin-3-yl)urea hydrochloride], 105%.
Then `CN1CC[C@@H](NC(=O)Nc2cc(Cl)cc(Cl)c2)C[C@@H]1c1nc2ccccc2[nH]1` [Example 28, 1-[(2R,4R)-2-(1H-benzimidazol-2-yl)-1-methylpiperidin-4-yl]-3-(3,5-dichlorophenyl)urea hydrochloride], with 108%; and `CN1CC[C@@H](NC(=O)c2cc(-c3ccncc3)n[nH]2)C[C@@H]1c1nc2ccccc2[nH]1` [Example 74, N-[(2R,4R)-2-(1H-benzimidazol-2-yl)-1-methylpiperidin-4-yl]-3-pyridin-4-yl-1H-pyrazole-5-carboxamide hydrochloride], with 101%.
Then `CN1CC[C@@H](NC(=O)c2ccc3c(c2F)OCCO3)C[C@@H]1c1nc2cc(Cl)ccc2[nH]1` [Example 142, N-[(2R,4R)-2-(5-chloro-1H-benzimidazol-2-yl)-1-methylpiperidin-4-yl]-5-fluoro-2,3-dihydro-1,4-benzodioxine-6-carboxamide triflouroacetate], with 101%; and `COc1ccc2[nH]c([C@H]3C[C@H](NC(=O)c4ccc5c(c4Cl)OCCO5)CCN3C)nc2c1` [Example 146, 5-chloro-N-[(2R,4R)-2-(5-methoxy-1H-benzimidazol-2-yl)-1-methylpiperidin-4-yl]-2,3-dihydro-1,4-benzodioxine-6-carboxamide triflouroacetate], with 107%; and `CN1CC[C@@H](NC(=O)Cc2ccc3c(c2)CCO3)C[C@@H]1c1nc2ccccc2[nH]1` [Example 116, N-[(2R,4R)-2-(1H-benzimidazol-2-yl)-1-methylpiperidin-4-yl]-2-(2,3-dihydro-1-benzofuran-5-yl)acetamide trifluoroacetate], with 68.2%.
With `CN1CC[C@@H](NC(=O)Cc2nc3ccccc3o2)C[C@@H]1c1nc2ccccc2[nH]1` [Example 114, N-[(2R,4R)-2-(1H-benzimidazol-2-yl)-1-methylpiperidin-4-yl]-2-(1,3-benzoxazol-2-yl)acetamide trifluoroacetate], the inhibition at 2 µM came out at 75.5%.
Turning to `CCN1CC[C@@H](NC(=O)c2ccc3c(c2)OCCO3)C[C@@H]1c1nc2ccccc2[nH]1` [Example 44, N-[(2R,4R)-2-(1H-benzimidazol-2-yl)-1-ethylpiperidin-4-yl]-2,3-dihydro-1,4-benzodioxine-6-carboxamide hydrochloride], the inhibition at 2 µM was 105%.
On to `CN1CC[C@@H](NC(=O)c2cnn3ccccc23)C[C@@H]1c1nc2ccccc2[nH]1` [Example 115, N-[(2R,4R)-2-(1H-benzimidazol-2-yl)-1-methylpiperidin-4-yl]pyrazolo[1,5-a]pyridine-3-carboxamide trifluoroacetate], for which the inhibition at 2 µM amounted to 69.6%.
As to `CN1CC[C@@H](NC(=O)N2CCOCC2)C[C@@H]1c1nc2ccccc2[nH]1` [Example 95, N-[(2R,4R)-2-(1H-benzimidazol-2-yl)-1-methylpiperidin-4-yl]morpholine-4-carboxamide hydrochloride], the inhibition at 2 µM was 78.7%.
In the case of `COc1ccc2[nH]c([C@H]3C[C@H](NC(=O)Nc4ccc(C)nc4)CCN3C3CCC3)nc2c1` [Example 153, 1-[(2R,4R)-1-cyclobutyl-2-(5-methoxy-1H-benzimidazol-2-y1)piperidin-4-yl]-3-(6-methylpyridin-3-yl)urea triflouroacetate] it was 107%; in that of `CN1CC[C@@H](NC(=O)Cc2ccccc2)C[C@@H]1c1nc2ccccc2[nH]1` [Example 110, N-[(2R,4R)-2-(1H-benzimidazol-2-yl)-1-methylpiperidin-4-yl]-2-phenylacetamide trifluoroacetate], 83.2%.
